Data from ChEMBL document CHEMBL5046278, “Synthesis and Evaluation of Novel Tetrahydronaphthyridine CXCR4 Antagonists with Improved Drug-like Profiles” (J Med Chem, 2022).
pIC50: −log10 of the molar value.

Legend:
[1] = Metabolic stability in human liver microsomes assessed compound remaining measured after 10 mins in presence of NADPH; assay type: ADME, Microsome; details: read-out: Stability
[2] = Antagonist activity at human CXCR4 receptor expressed in CCRF-CEM cells assessed as inhibition of CXCL12-induced calcium release by calcium flux assay; assay type: cell-based
[3] = Permeability of compound at pH 7.4 incubated for 4 hrs by PAMPA assay; assay type: ADME; details: read-out: permeability
[4] = target: Cytochrome P450 2D6 (Homo sapiens, UniProt P10635); experiment: Inhibition of recombinant human CYP2D6 using AMMC as substrate preincubated for 30 mins followed by substrate addition measured after 45 mins by fluorescence based assay; assay type: ADME
[5] = Metabolic stability in rat liver microsomes assessed compound remaining measured after 10 mins in presence of NADPH; assay type: ADME, Microsome; details: read-out: Stability
[6] = Cytotoxicity against human TZM-bl cells assessed as reduction in cell viability incubated for 4 hrs by […] assay; assay type: toxicity, cell-based; details: read-out: TC50
[7] = tested on: Human immunodeficiency virus 1; experiment: Antiviral activity against HIV-1 NL4-3(X4) pseudovirus infected in human TZM-bl cells assessed as reduction in viral infectivity measured after 48 hrs of postinfection by luminescence assay; assay type: functional, organism-based; details: Human immunodeficiency virus 1, NL4-3(X4)
[8] = target: T1, Alpha-2A adrenergic receptor (Homo sapiens, UniProt P08913); experiment: Inhibition of alpha 2A adrenergic receptor (unknown origin)
T1 sequence (P08913 whole entry): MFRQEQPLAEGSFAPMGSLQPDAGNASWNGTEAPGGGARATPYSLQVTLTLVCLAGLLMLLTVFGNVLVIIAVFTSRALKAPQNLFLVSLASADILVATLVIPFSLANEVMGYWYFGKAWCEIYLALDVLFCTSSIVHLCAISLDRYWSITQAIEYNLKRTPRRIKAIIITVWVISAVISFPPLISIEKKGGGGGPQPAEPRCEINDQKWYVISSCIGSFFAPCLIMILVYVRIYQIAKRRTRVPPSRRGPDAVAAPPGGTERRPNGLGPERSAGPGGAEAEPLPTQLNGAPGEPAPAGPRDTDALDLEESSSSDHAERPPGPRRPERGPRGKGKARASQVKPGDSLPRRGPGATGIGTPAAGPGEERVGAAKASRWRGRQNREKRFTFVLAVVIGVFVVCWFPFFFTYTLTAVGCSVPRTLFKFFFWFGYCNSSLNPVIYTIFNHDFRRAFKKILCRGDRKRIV

[9] = target: T2, Alpha-2C adrenergic receptor (Homo sapiens, UniProt P18825); experiment: Inhibition of alpha 2C adrenergic receptor (unknown origin)
T2 sequence (P18825 whole entry): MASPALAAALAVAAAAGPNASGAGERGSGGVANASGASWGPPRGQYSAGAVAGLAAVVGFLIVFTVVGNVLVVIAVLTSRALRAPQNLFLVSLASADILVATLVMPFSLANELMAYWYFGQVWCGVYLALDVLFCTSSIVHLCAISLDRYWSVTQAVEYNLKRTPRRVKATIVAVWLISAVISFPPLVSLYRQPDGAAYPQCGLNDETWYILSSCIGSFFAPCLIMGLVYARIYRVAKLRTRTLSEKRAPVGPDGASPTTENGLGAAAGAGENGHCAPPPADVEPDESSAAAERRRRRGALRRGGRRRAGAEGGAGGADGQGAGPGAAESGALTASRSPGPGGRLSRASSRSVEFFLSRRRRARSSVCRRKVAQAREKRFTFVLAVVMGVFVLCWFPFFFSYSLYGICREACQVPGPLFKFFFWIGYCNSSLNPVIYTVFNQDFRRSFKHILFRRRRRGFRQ

[10] = target: Kappa-type opioid receptor (Homo sapiens, UniProt P41145); experiment: Inhibition of kappa opioid receptor (unknown origin)
[11] = target: Voltage-gated inwardly rectifying potassium channel KCNH2 (Homo sapiens, UniProt Q12809); experiment: Inhibition of human ERG by [3H]]Astemizole binding assay; assay type: toxicity
[12] = Half life in mouse at 3 mg/kg, iv measured after 8 hrs by LC-MS/MS analysis; assay type: ADME, organism-based; details: in vivo
[13] = Cmax in mouse at 10 mg/kg, po measured after 8 hrs by LC-MS/MS analysis; assay type: ADME, organism-based; set-up: route oral, time 8 hrs, dose 10 mg/kg; details: in vivo
[14] = Drug concentration in mouse plasma at 3 mg/kg, po measured at 12 hrs by LC-MS/MS analysis; assay type: ADME, organism-based
[15] = AUC(0 to 8 h)in mouse plasma at 3 mg/kg, po measured at 24 hrs by LC-MS/MS analysis; assay type: ADME, organism-based; set-up: route oral, dose 3 mg/kg, time 24 hrs; details: in vivo
[16] = AUC(0 to 8 h) in mouse plasma at 10 mg/kg, po measured at 24 hrs by LC-MS/MS analysis; assay type: ADME, organism-based; set-up: route oral, dose 10 mg/kg, time 24 hrs; details: in vivo
[17] = Oral bioavailability in mouse at 3 mg/kg measured at 24 hrs by LC-MS/MS analysis; assay type: ADME, organism-based; details: in vivo
[18] = Oral bioavailability in mouse at 10 mg/kg measured at 24 hrs by LC-MS/MS analysis; assay type: ADME, organism-based; details: in vivo
[19] = Volume of distribution in mouse at 3 mg/kg, measured at 24 hrs by LC-MS analysis; assay type: ADME, organism-based; details: in vivo
[20] = target: Cytochrome P450 1A2 (Homo sapiens, UniProt P05177); experiment: Inhibition of CYP1A2(unknown origin); assay type: ADME
[21] = target: Cytochrome P450 2C19 (Homo sapiens, UniProt P33261); experiment: Inhibition of CYP2C19 (unknown origin); assay type: ADME
[22] = species: Homo sapiens; experiment: Selectivity index, ratio of IC50 for antagonist activity at mAChR (unknown origin) to IC50 for antagonist activity at human CXCR4 receptor
[23] = target: C-X-C chemokine receptor type 2 (Homo sapiens) (UniProt P25025); experiment: Inhibition of human CXCR2 at 10 uM relative to control
[24] = target: C-C chemokine receptor type 4 (Homo sapiens) (UniProt P51679); experiment: Inhibition of human CCR4 at 10 uM relative to control
[25] = target: C-C chemokine receptor type 5 (Homo sapiens) (UniProt P51681); experiment: Inhibition of human CCR5 at 10 uM relative to control
[26] = target: C-C chemokine receptor type 6 (Homo sapiens) (UniProt P51684); experiment: Inhibition of human CCR6 at 10 uM relative to control
[27] = target: C-C chemokine receptor type 7 (Homo sapiens) (UniProt P32248); experiment: Inhibition of human CCR7 at 10 uM relative to control
[28] = species: Homo sapiens; experiment: Selectivity index, ratio of IC50 for inhibition of M2 mAChR receptor (unknown origin) to IC50 for antagonist activity at human CXCR4 receptor expressed in CCRF-CEM cells; assay type: cell-based
[29] = species: Homo sapiens; experiment: Selectivity index, ratio of IC50 for inhibition of hERG receptor (unknown origin) to IC50 for antagonist activity at human CXCR4 receptor expressed in CCRF-CEM cells; assay type: cell-based
[30] = species: Homo sapiens; experiment: Selectivity index, ratio of IC50 for inhibition of recombinant human CYP2C19 (unknown origin) to IC50 for antagonist activity at human CXCR4 receptor expressed in CCRF-CEM cells; assay type: cell-based

Sequence of Voltage-gated inwardly rectifying potassium channel KCNH2 (Q12809 whole entry): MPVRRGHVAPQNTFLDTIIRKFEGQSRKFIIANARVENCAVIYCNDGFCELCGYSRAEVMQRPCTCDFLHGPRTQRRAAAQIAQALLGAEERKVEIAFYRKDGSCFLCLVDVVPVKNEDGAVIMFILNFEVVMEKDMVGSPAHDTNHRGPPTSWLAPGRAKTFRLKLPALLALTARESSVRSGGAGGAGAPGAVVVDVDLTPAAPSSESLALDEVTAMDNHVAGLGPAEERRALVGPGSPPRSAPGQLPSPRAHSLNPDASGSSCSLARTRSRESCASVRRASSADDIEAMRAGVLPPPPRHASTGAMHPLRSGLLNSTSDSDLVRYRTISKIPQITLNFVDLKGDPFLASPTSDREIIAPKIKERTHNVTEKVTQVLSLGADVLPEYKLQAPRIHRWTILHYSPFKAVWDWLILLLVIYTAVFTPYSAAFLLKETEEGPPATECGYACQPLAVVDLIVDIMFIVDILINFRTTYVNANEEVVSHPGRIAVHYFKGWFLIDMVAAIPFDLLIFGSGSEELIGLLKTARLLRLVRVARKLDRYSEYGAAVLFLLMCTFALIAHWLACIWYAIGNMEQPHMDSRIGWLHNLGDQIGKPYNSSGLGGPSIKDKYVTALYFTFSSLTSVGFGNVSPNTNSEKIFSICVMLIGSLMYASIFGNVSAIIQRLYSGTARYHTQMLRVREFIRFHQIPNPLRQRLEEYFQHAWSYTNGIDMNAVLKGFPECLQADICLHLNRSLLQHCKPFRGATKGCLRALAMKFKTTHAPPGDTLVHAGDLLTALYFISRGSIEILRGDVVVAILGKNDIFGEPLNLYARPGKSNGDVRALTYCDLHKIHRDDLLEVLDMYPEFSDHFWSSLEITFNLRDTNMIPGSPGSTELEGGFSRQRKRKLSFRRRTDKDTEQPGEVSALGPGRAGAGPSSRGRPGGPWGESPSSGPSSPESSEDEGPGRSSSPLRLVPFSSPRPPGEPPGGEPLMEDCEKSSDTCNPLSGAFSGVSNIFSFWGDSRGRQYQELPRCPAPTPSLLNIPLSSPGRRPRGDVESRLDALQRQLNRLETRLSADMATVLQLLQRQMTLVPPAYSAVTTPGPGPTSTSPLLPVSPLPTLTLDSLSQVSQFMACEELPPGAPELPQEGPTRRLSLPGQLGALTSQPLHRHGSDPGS
Sequence of Cytochrome P450 1A2 (P05177 whole entry): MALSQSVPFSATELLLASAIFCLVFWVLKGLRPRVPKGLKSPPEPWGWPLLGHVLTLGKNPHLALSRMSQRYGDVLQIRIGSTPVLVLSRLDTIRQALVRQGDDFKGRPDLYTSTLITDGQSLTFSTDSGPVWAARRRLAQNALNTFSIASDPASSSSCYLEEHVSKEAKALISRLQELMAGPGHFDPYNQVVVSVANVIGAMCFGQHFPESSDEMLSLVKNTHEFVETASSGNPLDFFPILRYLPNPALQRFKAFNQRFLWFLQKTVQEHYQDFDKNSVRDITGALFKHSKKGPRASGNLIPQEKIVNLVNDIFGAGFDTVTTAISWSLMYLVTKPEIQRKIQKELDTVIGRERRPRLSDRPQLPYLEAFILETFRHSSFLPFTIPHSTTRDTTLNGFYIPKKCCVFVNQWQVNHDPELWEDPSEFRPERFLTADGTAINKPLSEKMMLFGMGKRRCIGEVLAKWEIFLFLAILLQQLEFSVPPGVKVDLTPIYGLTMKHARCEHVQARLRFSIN
Sequence of C-C chemokine receptor type 4 (Homo sapiens) (P51679 whole entry): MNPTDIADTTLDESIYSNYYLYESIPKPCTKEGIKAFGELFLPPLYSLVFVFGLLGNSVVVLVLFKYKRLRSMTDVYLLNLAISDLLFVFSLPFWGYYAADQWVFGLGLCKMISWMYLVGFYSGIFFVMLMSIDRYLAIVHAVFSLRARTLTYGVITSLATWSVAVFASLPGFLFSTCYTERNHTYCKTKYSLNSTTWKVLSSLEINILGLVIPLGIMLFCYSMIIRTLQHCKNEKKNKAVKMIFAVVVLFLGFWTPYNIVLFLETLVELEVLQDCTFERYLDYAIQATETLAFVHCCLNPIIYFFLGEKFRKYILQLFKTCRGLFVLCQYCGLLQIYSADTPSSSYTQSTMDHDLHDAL
Sequence of C-C chemokine receptor type 5 (Homo sapiens) (P51681 whole entry, looked up): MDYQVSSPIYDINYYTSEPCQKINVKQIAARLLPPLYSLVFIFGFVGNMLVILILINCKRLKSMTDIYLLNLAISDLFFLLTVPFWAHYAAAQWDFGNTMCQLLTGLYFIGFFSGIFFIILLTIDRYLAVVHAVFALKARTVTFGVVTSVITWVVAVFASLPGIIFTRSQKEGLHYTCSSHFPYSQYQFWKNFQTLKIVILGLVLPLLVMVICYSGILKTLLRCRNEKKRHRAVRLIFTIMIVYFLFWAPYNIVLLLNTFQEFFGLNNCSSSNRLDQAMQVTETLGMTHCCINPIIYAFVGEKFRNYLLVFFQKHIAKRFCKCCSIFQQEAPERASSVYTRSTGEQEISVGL
Sequence of C-C chemokine receptor type 7 (Homo sapiens) (P32248 whole entry): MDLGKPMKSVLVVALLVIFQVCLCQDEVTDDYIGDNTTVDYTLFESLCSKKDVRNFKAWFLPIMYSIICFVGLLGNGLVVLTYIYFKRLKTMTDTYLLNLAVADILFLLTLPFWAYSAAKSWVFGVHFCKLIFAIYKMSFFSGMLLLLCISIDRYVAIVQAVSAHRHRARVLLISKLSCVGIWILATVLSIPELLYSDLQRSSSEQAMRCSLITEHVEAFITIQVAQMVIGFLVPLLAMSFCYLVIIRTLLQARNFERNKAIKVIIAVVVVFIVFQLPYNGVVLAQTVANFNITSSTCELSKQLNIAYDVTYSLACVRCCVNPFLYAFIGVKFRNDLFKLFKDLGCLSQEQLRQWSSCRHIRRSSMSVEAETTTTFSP
Sequence of Kappa-type opioid receptor (P41145 whole entry): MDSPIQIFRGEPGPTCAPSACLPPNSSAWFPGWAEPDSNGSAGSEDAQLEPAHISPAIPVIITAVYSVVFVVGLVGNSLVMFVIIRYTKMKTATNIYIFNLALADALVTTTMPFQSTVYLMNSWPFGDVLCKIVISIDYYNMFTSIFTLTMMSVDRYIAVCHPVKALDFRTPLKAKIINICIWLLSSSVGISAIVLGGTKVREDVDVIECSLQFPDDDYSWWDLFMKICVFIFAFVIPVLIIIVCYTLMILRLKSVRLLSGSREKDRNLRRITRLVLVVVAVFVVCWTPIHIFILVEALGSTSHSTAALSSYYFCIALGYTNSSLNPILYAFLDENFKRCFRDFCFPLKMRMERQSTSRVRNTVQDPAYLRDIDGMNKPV
Sequence of C-C chemokine receptor type 6 (Homo sapiens) (P51684 whole entry): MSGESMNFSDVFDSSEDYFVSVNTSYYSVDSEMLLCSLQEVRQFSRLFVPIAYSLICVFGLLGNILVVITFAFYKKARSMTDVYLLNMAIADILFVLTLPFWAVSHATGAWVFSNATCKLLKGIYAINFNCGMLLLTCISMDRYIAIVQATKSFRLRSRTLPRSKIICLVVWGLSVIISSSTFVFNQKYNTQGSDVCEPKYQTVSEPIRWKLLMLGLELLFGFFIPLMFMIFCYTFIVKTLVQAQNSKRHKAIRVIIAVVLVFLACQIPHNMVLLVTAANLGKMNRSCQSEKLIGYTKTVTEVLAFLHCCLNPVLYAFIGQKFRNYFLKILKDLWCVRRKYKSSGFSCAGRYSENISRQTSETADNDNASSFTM
Sequence of Cytochrome P450 2D6 (P10635 whole entry): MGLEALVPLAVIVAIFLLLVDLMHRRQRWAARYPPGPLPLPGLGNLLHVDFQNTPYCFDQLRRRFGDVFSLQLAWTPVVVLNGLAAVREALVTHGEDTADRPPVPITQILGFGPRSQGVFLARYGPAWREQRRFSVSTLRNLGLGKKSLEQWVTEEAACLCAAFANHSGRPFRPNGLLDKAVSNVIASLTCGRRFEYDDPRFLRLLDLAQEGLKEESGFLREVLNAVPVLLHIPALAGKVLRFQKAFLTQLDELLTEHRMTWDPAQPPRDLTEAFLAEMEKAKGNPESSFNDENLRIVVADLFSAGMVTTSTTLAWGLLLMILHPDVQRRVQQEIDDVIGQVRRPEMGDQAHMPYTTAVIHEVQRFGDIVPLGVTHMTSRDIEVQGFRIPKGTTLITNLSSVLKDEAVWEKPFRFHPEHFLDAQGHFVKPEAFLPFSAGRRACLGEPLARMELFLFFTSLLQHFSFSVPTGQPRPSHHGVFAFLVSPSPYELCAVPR
Sequence of Cytochrome P450 2C19 (P33261 whole entry): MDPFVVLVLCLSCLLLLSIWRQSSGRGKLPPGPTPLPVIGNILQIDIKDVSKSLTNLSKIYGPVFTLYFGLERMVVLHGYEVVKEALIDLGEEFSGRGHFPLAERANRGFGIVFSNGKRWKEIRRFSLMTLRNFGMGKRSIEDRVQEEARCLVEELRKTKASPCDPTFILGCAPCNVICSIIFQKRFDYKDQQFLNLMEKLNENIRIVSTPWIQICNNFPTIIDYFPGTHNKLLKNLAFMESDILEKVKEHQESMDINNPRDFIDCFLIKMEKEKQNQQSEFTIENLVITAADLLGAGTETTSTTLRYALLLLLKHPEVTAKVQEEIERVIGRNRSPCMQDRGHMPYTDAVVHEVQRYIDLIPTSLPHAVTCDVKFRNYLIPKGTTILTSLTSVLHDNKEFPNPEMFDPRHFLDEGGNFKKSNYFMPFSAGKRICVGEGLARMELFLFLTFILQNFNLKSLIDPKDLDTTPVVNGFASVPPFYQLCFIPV
Sequence of C-X-C chemokine receptor type 2 (Homo sapiens) (P25025 whole entry): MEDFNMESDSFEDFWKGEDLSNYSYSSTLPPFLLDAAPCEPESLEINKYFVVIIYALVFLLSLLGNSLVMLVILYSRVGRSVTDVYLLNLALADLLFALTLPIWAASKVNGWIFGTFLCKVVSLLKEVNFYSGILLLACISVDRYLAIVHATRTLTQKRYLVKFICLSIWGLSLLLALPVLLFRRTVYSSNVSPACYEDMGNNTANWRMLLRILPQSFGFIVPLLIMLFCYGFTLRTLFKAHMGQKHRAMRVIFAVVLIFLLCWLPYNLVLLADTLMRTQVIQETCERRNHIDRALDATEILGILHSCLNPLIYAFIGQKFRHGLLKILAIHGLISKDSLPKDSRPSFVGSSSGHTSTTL

## CN(CCCCN(C[C@H]1Cc2ncccc2CN1)[C@H]1CCCc2cccnc21)C1CCC(F)(F)CC1
[1]
  remaining at 10 min: 61%
[2]
  pIC50: 7.62
[3]
  Papp at 4 h: 31 ×10⁻⁶ cm/s
[4]
  pIC50: 4.89
[5]
  remaining at 10 min: 8%
[6]
  CC50 at 4 h: > 10 µM
[7]
  pIC50: 8.15
[8]
  pIC50: 6.09
[9]
  pIC50: < 4.52
[10]
  pIC50: < 4.52
[11]
  pIC50: 4.77
[12]
  half-life: 5.89 h
[13]
  Cmax: 54.8 ng/mL
[14]
  concentration at 12 h: 1.5 ng/mL
[15]
  AUC: 34.3 h/ng/mL
[16]
  AUC: 190 h/ng/mL
[17]
  bioavailability: 12.9%
[18]
  bioavailability: 21.5%
[19]
  Vd: 96.3 L/kg
[20]
  pIC50: < 4.70
[21]
  pIC50: < 4.70
[22]
  Selectivity Index: > 710
[23]
  inhibition: < 5%
[24]
  inhibition: < 5%
[25]
  inhibition: < 5%
[26]
  inhibition: < 5%
[27]
  inhibition: < 5%
[28]
  Selectivity Index: > 1000
[29]
  Selectivity Index: > 1000
[30]
  Selectivity Index: > 710
